Test results published in patent EP0770606A1, “Cis-epoxide derivate useful as irreversible HIV protease inhibitor and process for its preparation” (LG Chemical Limited, priority 1995, dated 1997).

Key:
[1] = system: HIV-1; assay: Anti-viral activity: inhibition of HIV proliferation in H9 (reverse transcriptase activity) and Sup T1 (syncytium formation) cell lines; type: cell-based; conditions: concentration at which the proliferation of HIV is inhibited by 50%, H9 or Sup T1 cells, cell line not stated
Procedure: 1 x 10^5 cells of each of H9(ATCC HTB 176) and Sup T1 cell lines were added to the wells of a 24-well microtiter plate and the compound of the present invention was added thereto in various concentrations. 200 TCID50(200-fold of 50% tissue culture infection dose) of HIV-1 inoculum and rpmi-1640 medium(Sigma Chemical Co., U.S.A) were added successively to the wells and the plate was incubated at 37°C. In case of Sup T1, the number of syncytium formed was investigated after 3 to 9 days.
In the case of H9, three-quarters(3/4) of the culture medium was refreshed every 3 days. After 9 days, 6ml of the culture fluid was centrifuged at 1000rpm for 10 minutes. To 5ml of the resulting supernatant were added 2.5ml of 30% polyethylene glycol(PEG, M.W. 6000-8000) and 0.4M NaCl. The resulting solution was allowed to stand at 0°C overnight to precipitate virus particles. The solution was centrifuged at 2000rpm for 45 minutes, the supernatant was discarded therefrom and the precipitate was diluted with 20ml of a reverse transcriptase suspension buffer(50mM tris-HCl(Sigma), pH 7.5, 1mM dithiothreitol, 20% glycerol, 0.25M KCl and 0.25% Triton X-100). The resulting suspension was stored in an Effendorf tube at -70°C until use. A cycle of freezing the above virus suspension for 2 minutes in dry ice and thawing it at 37°C for 2 minutes was repeated three times and the resulting suspension was centrifuged at 4°C. The resulting supernatant was used in carrying out the reverse transcriptase assay.
10µl of the above virus suspension was added to a solution prepared by mixing: 10µl of buffer solution(250mM tris-HCl, pH 7.5, 37.5mM MgCl2, 0.25% triton X-100), 1.2µl of 200mM dithiothreitol, 5µl of 10µM oligo(dT)-poly(A)(Boeringer Mannheim, 12-18 oligomer), 1µl(1µCi) of ^3H-TTP(thymidinetriphosphate) and 23.6µl of water; and the resulting mixture was kept at 37°C. […] The amount of radioactivity was counted using a liquid scintillation counter.

[2] = Cytotoxicity by trypan blue dye exclusion; type: cell-based; conditions: human, h9 or sup t1 cells; concentration at which 50% of the cells die; 0.1µM to 100µM tested; cell line not stated; read-out: CT50 (the source's name)
Procedure: (§1) To determine the cytotoxicity of the compound of the present invention, 0.1µM to 100µM of the compound was added to H9 cell or Sup T1 cell and the mixture was cultured on a rpmi-1640 medium at 37°C. The medium was refreshed every 3 days and the extent of cell proliferation was observed using Hemacytometer according to the trypan blue dye exclusion technique which is well known in the art. CT50(i.e., the concentration at which 50% of the cells die) was determined.

[3] = biological target: T1, HIV-1 protease (Human immunodeficiency virus type 1 group M subtype B, UniProt P04585); type: biochemical; conditions: KINSIM/FITSIM analysis
T1 construct: adding 2.6nM of HIV-1 protease to the preincubation solution
Procedure: To a buffer solution comprising 50mM sodium acetate, pH 5.5, 1mM dithiothreitol(DTT), 1mM ethylenediaminetetraacetate (EDTA), 0.75M ammonium sulfate and 0.1% NP40(NONIDET P-40; Sigma Chemical Co., U.S.A.), was added a pre-determined amount of the compound obtained in Example to prepare a preincubation solution having a known concentration of the compound. The inhibition reaction was initiated by adding 2.6nM of HIV-1 protease to the preincubation solution. 10µl samples of the reaction solution were taken at a given time interval and each sample was added to 80µl of assay solution containing 100µM of reaction substrate in the same buffer solution as above to assay for the residual enzyme activity. […] The reaction rate was determined by subjecting both the substrate before the reaction and the product after the reaction to HPLC separation and then measuring the amount of the product relative to the substrate, using the strong absorbance of (p-NO2)-Phe at 280nm. The decrease in the enzyme activity with time was measured for each sample and the natural logarithmic values(ln) of the data points in a given experiment were plotted against time to obtain a linear correlation line. kobs was then calculated from the slope of the line.
The inhibition constant was calculated according to the following equation: (1)/(kobs)=(1)/(kina)+(KI)/(kina)(1)/([I]) [formula] wherein: kobs is a rate constant representing the rate of decrease in enzyme activity in the presence of the inhibitor, kina is a rate constant representing the rate of the irreversible covalent bond formation between the enzyme and the inhibitor (in Michaelis-Menten complex), KI is an inhibition constant represented by the equilibrium constant for the formation of the Michaelis-Menten complex from an enzyme and an inhibitor, and [I] designates the inhibitor concentration.
The inhibition constants KI, the rate constant kina and the second order rate constant kina/KI were tabulated by inputting the value of [E]/([E]+[EI]+[EI'] [formula] ) into KINSIM/FITSIM program.

[4] = system: H9 cell or Sup T1 cell; assay: Cytotoxicity by trypan blue dye exclusion; type: cell-based; conditions: human, h9 or sup t1 cells
Procedure: as §1

| Compound | IC50 [1] [nM] | IC50 ([1]; Human immunodeficiency virus 1) [nM] | CC50 [2] [nM] | Ki ([3]; inhibition constant, 2.6nM HIV-1 protease, pH 5.5) [nM] | kina ([3]; rate constant of irreversible covalent bond formation between enzyme and inhibitor) [min⁻¹] | kina/KI ([3]; second order rate constant) | CC50 [4] [nM] |
| --- | --- | --- | --- | --- | --- | --- | --- |
| CC(C)c1nc(CN(C)C(=O)N[C@H](C(=O)N[C@@H](Cc2ccccc2)C[C@H](O)[C@H](Cc2ccccc2)NC(=O)OCc2cncs2)C(C)C)cs1 [ABI-538] | 53 | – | – | – | – | – | – |
| CC(C)(C)NC(=O)[C@@H]1CN(Cc2cccnc2)CCN1C[C@@H](O)C[C@@H](Cc1ccccc1)C(=O)N[C@H]1c2ccccc2C[C@H]1O [MK-639, reference compound] | – | 10 | 10000 | – | – | – | – |
| [(5S)-[(N-isopropyloxycarbonyl)-β-methanesulfonyl-L-valinyl]amino]-(4R, 3S)-epoxy-6-phenyl-1-hexanoyl]-[(2S)-(1-phenyl-3-methyl-1-oxo)butylamino]amide [compound of the present invention] | 15 | – | – | 12 | 3.2 | 2.7 x 10^7 min^-1M^-1 | 10000 |
